In patent US9663510B2, “Substituted triazolopyridines and their use as TTK inhibitors” (Bayer Intellectual Property GmbH, priority 2011, dated 2017):
Like-named read-outs stand apart in the source and are kept apart here.

Columns and labels:
human kinase Mps-1 = human kinase Mps-1 (Homo sapiens (Human), UniProt P33981); assay: Mps-1 kinase assay (TR-FRET); type: biochemical
[1] = Metabolic stability in vitro, dog liver microsomes (calculation of Fmax); type: in vitro ADME; details: maximal oral bioavailability calculated from microsomal half-life, 1 μM
Description: (§1) The metabolic stability of test compounds in vitro was determined by incubating them at 1 μM with a suspension liver microsomes in 100 mM phosphate buffer, pH7.4 (NaH2PO4×H2O+Na2HPO4×2H2O) at a protein concentration of 0.5 mg/mL and at 37° C. The reaction was activated by adding a co-factor mix containing 1.2 mg NADP, 3 IU glucose-6-phosphate dehydrogenase, 14.6 mg glucose-6-phosphate and 4.9 mg MgCl2 in phosphate buffer, pH 7.4. Organic solvent in the incubations was limited to <0.2% dimethylsulfoxide (DMSO) and <1% methanol. During incubation, the microsomal suspensions were continuously shaken and aliquots were taken at 2, 8, 16, 30, 45 and 60 min, to which equal volumes of cold methanol were immediately added. Samples were frozen at −20° C. over night, subsequently centrifuged for 15 minutes at 3000 rpm and the supernatant was analyzed with an Agilent 1200 HPLC-system with LCMS/MS detection.
(§2) The half-life of a test compound was determined from the concentration-time plot. From the half-life the intrinsic clearances were calculated. Together with the additional parameters liver blood flow, specific liver weight and microsomal protein content the hepatic in vivo blood clearance (CL) and the maximal oral bioavailability (Fmax) were calculated for the different species. The following parameter values were used: Liver blood flow—1.3 L/h/kg (human), 2.1 L/h/kg (dog), 4.2 L/h/kg (rat); specific liver weight—21 g/kg (human), 39 g/kg (dog), 32 g/kg (rat); microsomal protein content—40 mg/g.
(§3) With the described assay only phase-I metabolism of microsomes is reflected, e.g. typically oxidoreductive reactions by cytochrome P450 enzymes and flavin mono-oxygenases (FMO) and hydrolytic reactions by esterases (esters and amides).

[2] = test system: HeLa human cervical tumor cells; assay: HeLa cell proliferation assay (crystal violet); type: cell-based; details: 96 h, 4 days incubation, read-out: Inhibition of cell proliferation, cell Line: HeLa IC50
[3] = Metabolic stability in vitro, rat liver microsomes (calculation of Fmax); type: in vitro ADME; details: maximal oral bioavailability calculated from microsomal half-life, 1 μM
Description: as §1, §2, §3

[4] = Metabolic stability in vitro, human liver microsomes (calculation of Fmax); type: in vitro ADME; details: maximal oral bioavailability calculated from microsomal half-life, 1 μM
Description: as §1, §2, §3

[5] = read-out: Mps-1 Inhibition, IC50 (Assay with 10 μM ATP), 10 μM ATP
[6] = read-out: Mps-1 Inhibition, IC50 (Assay with 2 mM ATP), 2 mM ATP

Sequence of human kinase Mps-1 (P33981 whole entry): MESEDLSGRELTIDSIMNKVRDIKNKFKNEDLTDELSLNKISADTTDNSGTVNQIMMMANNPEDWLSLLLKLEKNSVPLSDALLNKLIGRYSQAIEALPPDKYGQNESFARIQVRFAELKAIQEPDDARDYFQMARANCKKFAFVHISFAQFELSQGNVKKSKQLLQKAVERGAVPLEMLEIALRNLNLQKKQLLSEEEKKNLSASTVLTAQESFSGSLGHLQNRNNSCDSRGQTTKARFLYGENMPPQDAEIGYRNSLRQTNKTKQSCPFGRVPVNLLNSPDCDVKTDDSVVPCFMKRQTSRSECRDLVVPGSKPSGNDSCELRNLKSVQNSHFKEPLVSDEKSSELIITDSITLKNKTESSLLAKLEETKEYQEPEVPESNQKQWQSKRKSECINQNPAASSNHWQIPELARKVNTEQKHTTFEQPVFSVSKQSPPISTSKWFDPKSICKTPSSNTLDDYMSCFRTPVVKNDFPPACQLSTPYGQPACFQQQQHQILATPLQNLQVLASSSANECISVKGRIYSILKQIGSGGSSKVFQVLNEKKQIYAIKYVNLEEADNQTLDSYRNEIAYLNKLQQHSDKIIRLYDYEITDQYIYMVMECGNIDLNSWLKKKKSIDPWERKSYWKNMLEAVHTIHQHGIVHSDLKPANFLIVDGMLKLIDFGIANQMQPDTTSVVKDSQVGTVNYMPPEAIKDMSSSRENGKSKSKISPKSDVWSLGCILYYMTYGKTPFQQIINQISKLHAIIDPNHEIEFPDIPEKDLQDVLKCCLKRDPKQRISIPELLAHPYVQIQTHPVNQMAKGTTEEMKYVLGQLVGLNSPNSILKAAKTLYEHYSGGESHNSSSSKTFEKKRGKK

Row | SMILES | IC50 (human kinase Mps-1; 2 mM ATP) [nM] | IC50 (human kinase Mps-1; [5]) [nM] | Dog liver microsomes; Fmax [%] [1] [%] | IC50 [2] [nM] | Rat liver microsomes; Fmax [%] [3] [%] | Human liver microsomes; Fmax [%] [4] [%] | IC50 (human kinase Mps-1; [6]) [nM]
1 | CS(=O)(=O)c1ccc(Nc2nc3ccc(-c4ccc(NC(=O)C(CO)c5ccc(F)cc5)cc4)cn3n2)c(OCC(F)(F)F)c1 (single isomer, unassigned) [Example01.10, (−)-2-(4-fluorophenyl)-3-hydroxy-N-[4-(2-{[4-(methylsulfonyl)-2-(2,2,2-tri-fluoroethoxy)phenyl]amino}[1,2,4]triazolo[1,5-a]pyridin-6-yl)phenyl]-propanamide] | 1.1 | < 1 | >95 | < 200 | >95 | >95 | 
2 | CCOc1cc(S(C)(=O)=O)ccc1Nc1nc2ccc(-c3ccc(NC(=O)[C@H](C)c4ccc(F)cc4)cc3)cn2n1 [Example01.02, (2R)—N-[4-(2-{[2-ethoxy-4-(methylsulfonyl)phenyl]amino}[1,2,4]-triazolo[1,5-a]pyridin-6-yl)phenyl]-2-(4-fluorophenyl)propanamide] |  | < 1 | 73 | < 600 | 86 | 68 | < 1
3 | COc1cc(C(N)=O)ccc1Nc1nc2ccc(-c3ccc(NC(=O)[C@H](C)c4ccc(F)cc4)cc3)cn2n1 [Example01.05] | 1.2 | < 1 | 89 | < 100 | >95 | >95 | 
4 | COc1cc(C(=O)N2CCC2)ccc1Nc1nc2ccc(-c3ccc(NC(=O)[C@H](C)c4ccc(F)cc4)cc3)cn2n1 [Example01.08, (2R)—N-[4-(2-{[4-(azetidin-1-ylcarbonyl)-2-methoxyphenyl]amino}[1,2,4]-triazolo[1,5-a]pyridin-6-yl)phenyl]-2-(4-fluorophenyl)propanamide] |  | < 1 | 75 |  | 74 | 62 | < 1
5 | COc1cc(S(C)(=O)=O)ccc1Nc1nc2ccc(-c3ccc(NC(=O)[C@H](C)c4ccc(F)cc4)cc3)cn2n1 [Example 01.01, (2R)-2-(4-fluorophenyl)-N-[4-(2-{[2-methoxy-4-(methylsulfonyl)phenyl]-amino}[1,2,4]triazolo[1,5-a]pyridin-6-yl)phenyl]propanamide] |  |  | 64 | < 400 | 92 | 92 | 
6 | C[C@@H](C(=O)Nc1ccc(-c2ccc3nc(Nc4ccc(S(C)(=O)=O)cc4OCC(F)(F)F)nn3c2)cc1)c1ccc(F)cc1 [Example 01.03, (2R)-2-(4-fluorophenyl)-N-[4-(2-{[4-(methylsulfonyl)-2-(2,2,2-trifluoro-ethoxy)phenyl]amino}[1,2,4]triazolo[1,5-a]pyridin-6-yl)phenyl]-propanamide] |  | < 1 | 55 |  | 93 | >95 | < 1
7 | COc1cc(C(=O)N2CC(F)C2)ccc1Nc1nc2ccc(-c3ccc(NC(=O)[C@H](C)c4ccc(F)cc4)cc3)cn2n1 [Example 01.07, (2R)-N-{4-[2-({4-[(3-fluoroazetidin-1-yl)carbonyl]-2-methoxyphenyl}amino)-[1,2,4]triazolo[1,5-a]pyridin-6-yl]phenyl}-2-(4-fluorophenyl)propanamide] |  |  | 86 |  | 83 | >95 | 
8 | COc1cc(N2CCOC2=O)ccc1Nc1nc2ccc(-c3ccc(NC(=O)[C@H](C)c4ccc(F)cc4)cc3)cn2n1 [Example 01.09, (2R)-2-(4-fluorophenyl)-N-[4-(2-{[2-methoxy-4-(2-oxo-1,3-oxazolidin-3-yl)phenyl]amino}[1,2,4]triazolo[1,5-a]pyridin-6-yl)phenyl]propanamide] |  |  | 48 |  | 58 | 49 | 
